Literature values in patent US11576926B2, “Composition for use in the prevention and/or treatment of epistaxis” (priority 2018, dated 2023).

Experiments:
[1] = test system: fibroblast; details: both in vitro and in vivo
[2] = test system: ultraviolet-induced erythema; details: in vivo
[3] = test system: epidermal wounds
[4] = test system: epithelial tissue in mouse models; details: dexpanthenol cream; after 20 days; vs control group
[5] = test system: dry rhinitis; details: 20 ml spray with 5% dexpanthenol; vs placebo
[6] = test system: rhinitis sicca syndrome; details: nasal spray; 0.5% ectoin, or 0.5% ectoin and 1.0% dexpanthenol
[7] = test system: Escherichia coli; details: silver ions
[8] = test system: Staphylococcus aureus; details: silver ions
[9] = test system: non-allergic and idiopathic rhinitis
[10] = test system: corneal wounds in rat models with type 1 diabetes; details: solution containing 0.3% HA
[11] = test system: nasal mucosa after surgery in the nasal cavity
[12] = test system: TPA (12-O-tetradecanoylphorbol-13-acetate) induced inflammatory response; details: topical, 30 minutes before TPA
[13] = test system: seasonal allergic rhinitis; details: 800 mg/day in addition to the classic anti-allergy treatment; 112 patients
[14] = patients who received the therapy, 90 patients

For `CC(C)(CO)[C@@H](O)C(=O)NCCCO` [dexpanthenol, Dexpanthenol], the fibroblast proliferation [1] is given as “activate fibroblast proliferation”, the “effect on experimental ultraviolet-induced erythema” value [2] is given as “anti-inflammatory effect” and the “epidermal regeneration (transepidermal water loss monitoring)” value ([3]; compared to placebo) is given as “significant acceleration of epidermal regeneration”. The “erythema of epidermal wounds” value ([3]; dexpanthenol emulsion) was “reduction in erythema”, the “re-epithelialization in wound healing” value ([3]; monitored by transepidermal water loss) was “Accelerated re-epithelialization” and the “regeneration rate of epithelial tissue” value [4] was “statistically higher than the control group”. For the same compound, the “symptoms of rhinitis (scabs, nasal respiratory capacity)” value [5] was “improving the symptoms of rhinitis”.

For `CC1=NCC[C@@H](C(=O)O)N1` [ectoin], the “nasal obstruction, rhinorrhea and crusting” value [6] is listed as “decreased significantly” and the “recurrent nose bleeding, pharyngitis, exudate viscosity during inflammatory phenomena and cacosmia” value [6] is listed as “this did not occur”.

For `[Ag]` [silver, Silver], the “antibacterial effect (structural changes, permeability, ion transport)” value [7] is listed as “eventually leading to death”, the “antibacterial effect (structural changes, permeability, ion transport)” value [8] is listed as “eventually leading to death” and the “improvement in the condition of the nasal epithelium, share of patients” value ([9]; human, in vivo) is listed as “over 70%”. The “treatment effect compared to placebo” value ([9]; human, in vivo) was “statistically significant compared to placebo”, the “improvement in the nasal decongestion, share of cases” value [9, 14] was 80% and the “improvement in the rhinorrhea, share of cases” value [9, 14] was 93%.

In the case of Hyaluronic acid, the “re-epithelialization of corneal wounds” value [10] is given as “statistically significant in enhancing re-epithelialization”, the “formation of bloody scabs” value ([11]; after the first week of treatment) is given as “prevented excessive formation of bloody scabs” and the tolerability ([11]; all trial participants) is given as “well tolerated”. For the same compound, the “recovery (healing of the nasal mucosa)” value ([11]; cream with 2 mg HA per g, 6-week treatment, vs ointments based on plant extracts, 56 patients) was “recover faster and more effectively than the ointment group” and the adverse effects ([11]; during the trial) was “No adverse effects were reported”.

For Vitamin E, the “activity of myeloperoxidase (MPO)” value [12] is given as “inhibits”, the “activity of xanthine oxidase (XO)” value [12] is given as “inhibits” and the “lipid peroxidation (LPO)” value [12] is given as “inhibits”. The “release of hydrogen peroxide” value [12] was “inhibits” and the “nasal symptoms associated with allergic rhinitis” value [13] was “reduction of the nasal symptoms”.
